Laboratory results as given in patent US20260027068A1, “METHODS OF ADM[…]-KETAMINE” (Perception Neuroscience, Inc., priority 2022, published 2026).

Tested on: subjects with TRD
Assay: MADRS total score after a single 40-minute IV infusion, double-blind placebo-controlled study in TRD
Type: in vivo, human
Conditions: for Change from Baseline MADRS Total Score, Adjusted mean (SE) / Diff. Adjusted mean (SE) R(−)ketamine - Placebo: MMRM
Method: This was a double-blind, randomized, placebo-controlled, multicenter study comprised of 3 phases: screening (up to 2 weeks [day-15 to day-2]), in-clinic treatment (day-1 to day 2; including double-blind treatment [day 1]), and post-treatment follow-up (7 and 14 days after infusion on days 8 and 15, respectively). The study consisted of 3 arms: placebo, R(−)-ketamine solution (30 mg), and R(−)-ketamine solution (60 mg.) A total of 101 adult subjects with TRD were randomly allocated in cohorts of 33-35 subjects/arm to the 3 arms of the study in a blinded manner.
The subjects were randomized within 14 days of screening (Visit 1). Subjects were admitted to the clinic the evening prior to study treatment administration (day-1, Visit 2) and underwent baseline testing to ensure continued study eligibility. Study treatments were infused IV over 40 minutes the next morning (day 1, Visit 2). Starting immediately prior to dosing, subjects were monitored closely for safety.
To determine the efficacy of two doses (30 mg and 60 mg) of intravenous (IV) R(−)-ketamine hydrochloride, the doses were administered as an IV infusion over 40 minutes. These doses are within the range shown to be well-tolerated in a Phase 1 study in healthy volunteers. […] The 10-item clinician-administered MADRS was designed to be used in subjects with MDD to measure the overall severity of depressive symptoms. The MADRS scale is validated, reliable, and acceptable to regulatory health authorities as a primary scale to determine efficacy in major depression.
Population: Subjects with TRD in the full analysis set (FAS) and analyzed according to their randomized treatment. The analysis population includes all randomized subjects who receive any amount of study treatment and have at least one postbaseline assessment available. Variable: Change in total MADRS score from baseline at 24 hours after the start of infusion.
MADRS total score was assessed at 2 and 4 hours, 7 and 14 days after the start of the infusion (days 8 and 15, respectively). Note, for the 2-hour and 4-hour recall periods, the sleep and appetite items were not assessed.
Proportion of subjects with ≥50% improvement in MADRS total score at 24 hours, 7 days, and 14 days after start of infusion (days 8 and 15, respectively).
Proportion of subjects with a MADRS total score≤10 at 24 hours, 7 days, and 14 days after start of infusion (days 8 and 15, respectively).
The 10-item MADRS was administered by the study staff to measure the overall severity of depressive symptoms. The MADRS total score was assessed at screening and baseline (Day 1 pre-dose). The primary efficacy endpoint of improvement in the MADRS total score was evaluated prior to discharge on Day 2 of Visit 2, 24 hours after the start of the infusion of study treatment. The MADRS total score was also assessed at 2 hours, 4 hours, 7 days (on Day 8), and 14 days (on Day 15) after the start of the infusion to evaluate the secondary efficacy endpoints of response (defined as ≥50% improvement in the MADRS total score from pre-dose) and remission (defined as MADRS total score≤10) in the improvement of depressive symptoms in the subjects. While the MADRS is typically used with a 7-day recall period, versions of the MADRS including 2-hour and […] recall periods were used in this study. (For the 2 hour and 4 hour periods, the sleep and appetite items were […]; pre-dose scores for these items obtained on the same day were carried forward).
The change from baseline in MADRS scores was summarized separately by treatment arm for each visit. Associated baseline scores were taken as the last corresponding measurement prior to the first dose of IMP in the treatment period (i.e., Visit 2, pre-dose). The primary endpoint of change from baseline MADRS total score at 24 hours post start of infusion was evaluated using a mixed effects model for repeated measure (MMRM) analysis with observed cases only. […]

[1] = 30 mg, Day 1, 24 hours, primary endpoint
[2] = 60 mg, Day 1, 24 hours, primary endpoint

## CN[C@@]1(c2ccccc2Cl)CCCCC1=O.Cl [R(−)-ketamine, (2R)-2-(2-chlorophenyl)-2-(methylamino)cyclohexan-1-one]
30 mg, 2 hours
  MADRS total score, Mean: 20.7
  MADRS total score, Median: 21.0
30 mg, 4 hours
  MADRS total score, Mean: 19.2
  MADRS total score, Median: 19.0
30 mg, 24 hours (Day 2)
  MADRS total score, Mean: 16.7
  MADRS total score, Median: 13.0
30 mg, Day 1, 2 hours
  Not-responder, %: 72.7%
  Responder (>=50% improvement of MADRS total score), %: (27.3) %
  adjusted odds ratio R-ket/placebo (95% CI): 1.667 (0.503, 5.520)
  Change from Baseline MADRS Total Score, Adjusted mean (SE): −9.7 (1.35)
  Diff. Adjusted mean (SE) R(−)ketamine - Placebo: −0.6 (1.85) [−4.24, 3.08]
30 mg, Day 1, 4 hours
  Not-responder, %: 72.7%
  Responder (>=50% improvement of MADRS total score), %: (27.3) %
  adjusted odds ratio R-ket/placebo (95% CI): 0.963 (0.317, 2.928)
  Change from Baseline MADRS Total Score, Adjusted mean (SE): −11.2 (1.36)
  Diff. Adjusted mean (SE) R(−)ketamine - Placebo: −0.1 (1.86) [−3.81, 3.56]
30 mg, Day 1, 24 hours
  Not-responder, %: 42.4%
  Responder (>=50% improvement of MADRS total score), %: (57.6) %
  adjusted odds ratio R-ket/placebo (95% CI): 1.418 (0.524, 3.837)
[1]
  Change from Baseline MADRS Total Score, Adjusted mean (SE): −13.7 (1.75)
  Diff. Adjusted mean (SE) R(−)ketamine - Placebo: −0.0 (2.42) [−4.84, 4.77]
30 mg, Day 8
  MADRS total score, Mean: 19.9
  MADRS total score, Median: 22.0
  Not-responder, %: 70.0%
  Responder (>=50% improvement of MADRS total score), %: (30.0) %
  adjusted odds ratio R-ket/placebo (95% CI): 1.040 (0.336, 3.212)
  Change from Baseline MADRS Total Score, Adjusted mean (SE): −10.4 (1.81)
  Diff. Adjusted mean (SE) R(−)ketamine - Placebo: 1.0 (2.51) [−4.01, 5.94]
30 mg, Day 15
  MADRS total score, Mean: 22.8
  MADRS total score, Median: 24.0
  Not-responder, %: 83.9%
  Responder (>=50% improvement of MADRS total score), %: (16.1) %
  adjusted odds ratio R-ket/placebo (95% CI): 0.621 (0.169, 2.282)
  Change from Baseline MADRS Total Score, Adjusted mean (SE): −7.5 (1.82)
  Diff. Adjusted mean (SE) R(−)ketamine - Placebo: 2.4 (2.53) [−2.62, 7.40]
30 mg, to 2 hours
  MADRS total score change from baseline, Mean: −8.8
  MADRS total score change from baseline, Median: −7.0
30 mg, to 4 hours
  MADRS total score change from baseline, Mean: −10.4
  MADRS total score change from baseline, Median: −10.0
30 mg, to 24 hours
  MADRS total score change from baseline, Mean: −12.8
  MADRS total score change from baseline, Median: −15.0
30 mg, to Day 8
  MADRS total score change from baseline, Mean: −9.8
  MADRS total score change from baseline, Median: −7.0
30 mg, to Day 15
  MADRS total score change from baseline, Mean: −6.6
  MADRS total score change from baseline, Median: −5.0
60 mg, 2 hours
  MADRS total score, Mean: 18.4
  MADRS total score, Median: 20.0
60 mg, 4 hours
  MADRS total score, Mean: 17.6
  MADRS total score, Median: 18.0
60 mg, 24 hours (Day 2)
  MADRS total score, Mean: 15.1
  MADRS total score, Median: 16.0
60 mg, Day 1, 2 hours
  Not-responder, %: 68.6%
  Responder (>=50% improvement of MADRS total score), %: (31.4) %
  adjusted odds ratio R-ket/placebo (95% CI): 2.031 (0.634, 6.504)
  Change from Baseline MADRS Total Score, Adjusted mean (SE): −12.0 (1.31)
  Diff. Adjusted mean (SE) R(−)ketamine - Placebo: −2.9 (1.82) [−6.55, 0.67]
60 mg, Day 1, 4 hours
  Not-responder, %: 62.9%
  Responder (>=50% improvement of MADRS total score), %: (37.1) %
  adjusted odds ratio R-ket/placebo (95% CI): 1.536 (0.534, 4.416)
  Change from Baseline MADRS Total Score, Adjusted mean (SE): −12.8 (1.32)
  Diff. Adjusted mean (SE) R(−)ketamine - Placebo: −1.7 (1.83) [−5.34, 1.92]
60 mg, Day 1, 24 hours
  Not-responder, %: 54.3%
  Responder (>=50% improvement of MADRS total score), %: (45.7) %
  adjusted odds ratio R-ket/placebo (95% CI): 0.847 (0.318, 2.254)
[2]
  Change from Baseline MADRS Total Score, Adjusted mean (SE): −15.3 (1.69)
  Diff. Adjusted mean (SE) R(−)ketamine - Placebo: −1.6 (2.38) [−6.35, 3.11]
60 mg, Day 8
  MADRS total score, Mean: 17.7
  MADRS total score, Median: 21.0
  Not-responder, %: 65.7%
  Responder (>=50% improvement of MADRS total score), %: (34.3) %
  adjusted odds ratio R-ket/placebo (95% CI): 1.202 (0.412, 3.511)
  Change from Baseline MADRS Total Score, Adjusted mean (SE): −12.7 (1.72)
  Diff. Adjusted mean (SE) R(−)ketamine - Placebo: −1.4 (2.44) [−6.26, 3.45]
60 mg, Day 15
  MADRS total score, Mean: 19.3
  MADRS total score, Median: 22.0
  Not-responder, %: 65.7%
  Responder (>=50% improvement of MADRS total score), %: (34.3) %
  adjusted odds ratio R-ket/placebo (95% CI): 1.715 (0.559, 5.263)
  Change from Baseline MADRS Total Score, Adjusted mean (SE): −11.1 (1.73)
  Diff. Adjusted mean (SE) R(−)ketamine - Placebo: −1.2 (2.46) [−6.09, 3.69]
60 mg, day 15
  MADRS difference from placebo: ~2 point
  Statistical significance of the MADRS difference from placebo: not statistically significant
60 mg, to 2 hours
  MADRS total score change from baseline, Mean: −11.3
  MADRS total score change from baseline, Median: −10.0
60 mg, to 4 hours
  MADRS total score change from baseline, Mean: −12.1
  MADRS total score change from baseline, Median: −12.0
60 mg, to 24 hours
  MADRS total score change from baseline, Mean: −14.5
  MADRS total score change from baseline, Median: −14.0
60 mg, to Day 8
  MADRS total score change from baseline, Mean: −12.0
  MADRS total score change from baseline, Median: −10.0
60 mg, to Day 15
  MADRS total score change from baseline, Mean: −10.4
  MADRS total score change from baseline, Median: −6.0
